# System: Tobacco Cutworm (Spodoptera litura) Larvae
# Experiment: Test against tobacco cutworm (Spodoptera litura) larvae, leaf dip
# Format: in vivo
# Details: Spodoptera litura, foliar, 168 h; active compound concentration of 100 ppm; third instar larvae; after 7 days; read-out: insecticidal activity
# Description: Solvent: 3 parts by weight of dimethylformamide
# Emulsifier: 1 part by weight of polyoxyethylene alkyl phenyl ether
# Leaves of sweet potato were immersed in the test solution at the appropriate concentration, and the leaves were dried in air. The leaves were then placed in a petri dish having a diameter of 9 cm, and ten Spodoptera litura at third instar larvae were released therein. The petri dishes were placed in a temperature-controlled chamber at 25° C. After 2 days and 4 days more sweet potato leaves were added. After 7 days, the number of dead larvae was counted to calculate the insecticidal activity. An insecticidal activity of 100% means that all larvae were killed, whereas an insecticidal activity of 0% means that no larva was killed.
row,SMILES,pest or weed control at 100 ppm
1,"CCC(=O)NCc1ccc(C(=O)Nc2c(Cl)cc(C(F)(C(F)(F)F)C(F)(F)F)cc2Cl)cc1Cl [Compound 5-230, 3-chloro-N-[2,6-dichloro-4-(1,1,1,2,3,3,3-heptafluoropropan-2-yl)phenyl]-4-[(propionylamino)methyl]benzamide]",100%
2,"O=C(Nc1c(Cl)cc(C(F)(C(F)(F)F)C(F)(F)F)cc1Cl)c1ccc(I)c(Cl)c1 [Compound A-7, 3-chloro-N-[2,6-dichloro-4-(1,1,1,2,3,3,3-heptafluoropropan-2-yl)phenyl]-4-iodobenzamide]",100%
3,"CCc1cc(C(F)(C(F)(F)F)C(F)(F)F)cc(C)c1NC(=O)c1ccc2c(c1)CCC2NC(C)=O (stereo not drawn) [Compound 10-2, 1-acetamide-N-[2-ethyl-4-(1,1,1,2,3,3,3-heptafluoropropan-2-yl)-6-methylphenyl]indane-5-carboxamide]",100%

# Same assay, conditions: active compound concentration of 100 ppm; third instar larvae; after 7 days
row,SMILES,insecticidal activity
1,Cc1cc(C(F)(C(F)(F)F)C(F)(F)F)cc(Cl)c1NC(=O)c1ccc(C#N)cc1 [Compound I-28],100%
2,CCc1cc(C(F)(C(F)(F)F)C(F)(F)F)cc(C)c1NC(=O)c1ccc(CNC(C)=O)c2ccccc12 [Compound 6-2],100%
3,CCc1cc(C(F)(C(F)(F)F)C(F)(F)C(F)(F)F)cc(C)c1NC(=O)c1ccc(CNC(=O)C2CC2)c(I)c1 (stereo not drawn) [Compound 5-196],100%
4,Cc1cc(C(F)(C(F)(F)F)C(F)(F)F)cc(Cl)c1NC(=O)c1ccc(CNC(=O)CC2CC2)cc1 [Compound 5-336],100%
5,Cc1cc(C(F)(C(F)(F)F)C(F)(F)F)cc(C)c1NC(=O)c1ccc(CNC(=O)CC(F)(F)F)cc1 [Compound 5-7],100%
6,CCc1cc(C(F)(C(F)(F)F)C(F)(F)F)cc(C)c1NC(=O)c1ccc(CNC(C)=O)c(I)c1 [Compound 5-190],100%
7,CCc1cc(C(F)(C(F)(F)F)C(F)(F)F)cc(C)c1NC(=O)c1ccc(CNC(=O)CC2CC2)c(F)c1F [Compound 5-54],100%
8,CCC(=O)NCc1cc(C(=O)Nc2c(C)cc(C(F)(C(F)(F)F)C(F)(F)F)cc2CC)ccc1-n1cncn1 [Compound 12-4],100%
9,CCc1cc(C(F)(C(F)(F)F)C(F)(F)F)cc(C)c1NC(=O)c1ccc(CNC(=O)C2CC2)c2ccccc12 [Compound 6-4],100%
10,CCc1cc(C(F)(C(F)(F)F)C(F)(F)F)cc(C)c1NC(=O)c1ccc(CNC(=O)CC(F)(F)F)c(F)c1F [Compound 5-55],100%
11,CCc1cc(C(F)(C(F)(F)F)C(F)(F)F)cc(C)c1NC(=O)c1ccc(CNC(=O)CC(F)(F)F)cc1Cl [Compound 5-68],100%
12,CCc1cc(C(F)(C(F)(F)F)C(F)(F)F)cc(C)c1NC(=O)c1ccc(CNC(=O)CC2CC2)cc1 [Compound 5-31],100%
13,CCc1cc(C(F)(C(F)(F)F)C(F)(F)F)cc(C)c1NC(=O)c1ccc(CN)c(Cl)c1 [Compound 5-76],100%
14,CC(=O)NCc1ccc(C(=O)Nc2c(Cl)cc(C(F)(C(F)(F)F)C(F)(F)C(F)(F)F)cc2Cl)cc1 (stereo not drawn) [Compound 5-322],100%
15,CCc1cc(C(F)(C(F)(F)F)C(F)(F)F)cc(C)c1NC(=O)c1ccc(C#N)cc1 [Compound I-2],100%
16,CCc1cc(C(F)(C(F)(F)F)C(F)(F)F)cc(C)c1NC(=O)c1ccc(CNC(=O)C2CC2)c(F)c1F [Compound 5-53],100%
17,O=C(CC1CC1)NCc1ccc(C(=O)Nc2c(Cl)cc(C(F)(C(F)(F)F)C(F)(F)C(F)(F)F)cc2Cl)cc1Cl (stereo not drawn) [Compound 5-330],100%
18,CCc1cc(C(F)(C(F)(F)F)C(F)(F)F)cc(C)c1NC(=O)c1ccc(CNC(=O)C(F)(F)F)c(Br)c1 [Compound 5-349],100%
19,CCc1cc(C(F)(C(F)(F)F)C(F)(F)C(F)(F)F)cc(C)c1NC(=O)c1ccc(CNC(=O)CC2CC2)c(I)c1 (stereo not drawn) [Compound 5-197],100%
20,CCC(=O)NCc1ccc(C(=O)Nc2c(C)cc(C(F)(C(F)(F)F)C(F)(F)F)cc2CC)c(F)c1F [Compound 5-52],100%
21,CCC(=O)NCc1ccc(C(=O)Nc2c(C)cc(C(F)(C(F)(F)F)C(F)(F)F)cc2CC)cc1[N+](=O)[O-] [Compound 5-115],100%
22,CCc1cc(C(F)(C(F)(F)F)C(F)(F)F)cc(C)c1NC(=O)c1ccc(C(C)NC(=O)CC2CC2)cc1 (stereo not drawn) [Compound 9-5],100%
23,CCc1cc(C(F)(C(F)(F)F)C(F)(F)C(F)(F)F)cc(C)c1NC(=O)c1ccc(CNC(=O)CC2CC2)c(Br)c1 (stereo not drawn) [Compound 5-160],100%
24,CCc1cc(C(F)(C(F)(F)F)C(F)(F)F)cc(C)c1NC(=O)c1ccc(CN(C)C(=O)c2cccnc2Cl)cc1 [Compound 5-189],100%
25,CCc1cc(C(F)(C(F)(F)F)C(F)(F)F)cc(C)c1NC(=O)c1ccc(C#N)cc1F [Compound I-3],100%
26,CCc1cc(C(F)(C(F)(F)F)C(F)(F)F)cc(C)c1NC(=O)c1ccc(CNC(=O)CC2CC2)cc1Cl [Compound 5-67],100%
27,CCc1cc(C(F)(C(F)(F)F)C(F)(F)F)cc(C)c1NC(=O)c1ccc(-n2cncn2)c(CNC(=O)OC)c1 [Compound 12-5],100%

row,SMILES,insecticidal activity
1,CCc1cc(C(F)(C(F)(F)F)C(F)(F)F)cc(C)c1NC(=O)c1ccc(CNC(=O)CC2CC2)c2ccccc12 [Compound 6-5],100%
2,CCc1cc(C(F)(C(F)(F)F)C(F)(F)F)cc(C)c1NC(=O)c1ccc(CNC(=O)C2CC2)c([N+](=O)[O-])c1 [Compound 5-116],100%
3,O=C(CC1CC1)NCc1ccc(C(=O)Nc2c(Cl)cc(C(F)(C(F)(F)F)C(F)(F)C(F)(F)F)cc2Cl)cc1 (stereo not drawn) [Compound 5-325],100%
4,Cc1cc(C(F)(C(F)(F)F)C(F)(F)F)cc(C)c1NC(=O)c1ccc(CNC(=O)CC2CC2)cc1F [Compound 5-24],100%
5,CCc1cc(C(F)(C(F)(F)F)C(F)(F)F)cc(C)c1NC(=O)c1ccc(CNC(=O)CC(F)(F)F)cn1 [Compound 7-6],100%
6,CCc1cc(C(F)(C(F)(F)F)C(F)(F)F)cc(C)c1NC(=O)c1ccc(CN)c(Br)c1 [Compound 5-83],100%
7,CCc1cc(C(F)(C(F)(F)F)C(F)(F)F)cc(C)c1NC(=O)c1ccc(CNC(C)=O)c(C)c1 [Compound 5-99],100%
8,Cc1cc(C(F)(C(F)(F)F)C(F)(F)F)cc(OC(F)F)c1NC(=O)c1ccc(CN)c(Cl)c1 [Compound 5-293],100%
9,CCC(=O)NCc1ccc(C(=O)Nc2c(C)cc(C(F)(C(F)(F)F)C(F)(F)F)cc2CC)cc1I [Compound 5-191],100%
10,CCC(=O)NCc1ccc(C(=O)Nc2c(C)cc(C(F)(C(F)(F)F)C(F)(F)F)cc2C)cc1 [Compound 5-3],100%
11,Cc1cc(C(F)(C(F)(F)F)C(F)(F)F)cc(Cl)c1NC(=O)c1ccc(CNC(=O)CC(F)(F)F)cc1 [Compound 5-335],100%
12,CCc1cc(C(F)(C(F)(F)F)C(F)(F)F)cc(C)c1NC(=O)c1ccc2c(c1)CCCC2NC(=O)CC(F)(F)F (stereo not drawn) [Compound 11-6],100%
13,CC(C)(C)OC(=O)NCc1ccc(C(=O)Nc2c(Cl)cc(C(F)(C(F)(F)F)C(F)(F)C(F)(F)F)cc2Cl)cc1Cl (stereo not drawn) [Compound 5-329],100%
14,CCc1cc(C(F)(C(F)(F)F)C(F)(F)F)cc(C)c1NC(=O)c1ccc(CNC(=O)CC(F)(F)F)nc1 [Compound 8-6],100%
15,CCc1cc(C(F)(C(F)(F)F)C(F)(F)C(F)(F)F)cc(C)c1NC(=O)c1ccc(CN)c(Cl)c1 (stereo not drawn) [Compound 5-149],100%
16,Cc1cc(C#N)ccc1C(=O)Nc1c(Cl)cc(C(F)(C(F)(F)F)C(F)(F)F)cc1Cl [Compound I-25],100%
17,CCc1cc(C(F)(C(F)(F)F)C(F)(F)F)cc(C)c1NC(=O)c1ccc(CNC(=O)C2CC2)c(C(F)(F)F)c1 [Compound 5-108],100%
18,CCc1cc(C(F)(C(F)(F)F)C(F)(F)F)cc(C)c1NC(=O)c1ccc(CNC(C)=O)c(C(F)(F)F)c1 [Compound 5-106],100%
19,O=C(CC(F)(F)F)NCc1ccc(C(=O)Nc2c(Cl)cc(C(F)(C(F)(F)F)C(F)(F)F)cc2Cl)cc1Cl [Compound 5-232],100%
20,CCc1cc(C(F)(C(F)(F)F)C(F)(F)F)cc(C)c1NC(=O)c1ccc(CNC(=O)CC2CC2)c([N+](=O)[O-])c1 [Compound 5-117],100%
21,Cc1cc(C(F)(C(F)(F)F)C(F)(F)F)cc(C)c1NC(=O)c1ccc(CNC(=O)c2cccnc2F)cc1 [Compound 5-19],100%
22,CCc1cc(C(F)(C(F)(F)F)C(F)(F)Br)cc(C)c1NC(=O)c1ccc(CNC(=O)C2CC2)c(Cl)c1 (racemic) [Compound 5-318],100%
23,Cc1cc(C(F)(C(F)(F)F)C(F)(F)F)cc(C)c1NC(=O)c1ccc(CNC(=O)c2cccnc2Cl)cc1F [Compound 5-182],100%
24,CCc1cc(C(F)(C(F)(F)F)C(F)(F)F)cc(C)c1NC(=O)c1ccc(CNC(=O)c2ccccc2Cl)cc1 [Compound 5-37],100%
25,CCC(=O)NCc1ccc(C(=O)Nc2c(C)cc(C(F)(C(F)(F)F)C(F)(F)C(F)(F)F)cc2CC)cc1Br (stereo not drawn) [Compound 5-158],100%
26,CCc1cc(C(F)(C(F)(F)F)C(F)(F)F)cc(C)c1NC(=O)c1ccc(CNC(=O)c2ccc(Cl)cc2)cc1 [Compound 5-39],100%
27,CCC(=O)NCc1ccc(C(=O)Nc2c(C)cc(C(F)(C(F)(F)F)C(F)(F)F)cc2CC)cc1C(F)(F)F [Compound 5-107],100%

# — patent publication US9227923B2, “Pesticidal carboxamides” (Bayer Intellectual Property GmbH, priority 2009, dated 2016)
